Experimental data as given in ChEMBL document CHEMBL1201862, “PubChem BioAssay data set” (2004).
The source made the active and inactive calls. Rule as the data show it, for most assays here: actives have a measured EC50 and inactives only a lower limit.

Experiments:
[1] = growth suppression of PTEN-null colon cells, dose response, cell-based, HCT116 PTEN knockout (AID 1047); assay type: functional;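 also: HCT116 colon tumor cells with PTEN knocked out; cells exposed to compound for 60 hours before readout; potency for loss of cell viability measured by luminescence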
[2] = growth suppression of beta-catenin-knockout colon cells, dose response, cell-based, HCT116, human colon tumor (AID 1045); assay type: functional;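 also: HCT116 colon tumor cells with beta catenin knocked out; cells exposed to compound for 60 hours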
cells = assay type: functional
[3] = biological target: T1, RNA-binding protein pos-1 (Caenorhabditis elegans, UniProt G5EF15); assay: inhibitors of POS-1/mex-3 RNA binding, dose response, biochemical, fluorescence polarization (AID 1964);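 also: purified POS-1 fused to maltose binding protein made in E. coli; potency of compounds blocking POS-1 binding to fluorescent RNA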
T1 sequence (G5EF15 whole entry): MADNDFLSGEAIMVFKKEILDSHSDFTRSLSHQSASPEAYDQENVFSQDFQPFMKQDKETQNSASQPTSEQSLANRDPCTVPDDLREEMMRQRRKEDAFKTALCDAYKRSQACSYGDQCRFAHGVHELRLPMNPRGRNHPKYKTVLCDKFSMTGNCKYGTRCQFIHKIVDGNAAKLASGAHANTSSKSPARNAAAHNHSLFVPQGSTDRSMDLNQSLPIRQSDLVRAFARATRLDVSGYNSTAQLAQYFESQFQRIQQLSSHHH

[4] = biological target: T2, Zinc finger protein mex-5 (Caenorhabditis elegans, UniProt Q9XUB2); assay: MEX-5/TCR-2 RNA interaction inhibitors, dose response, biochemical, C. elegans, fluorescence polarization (AID 1960)
T2 sequence (Q9XUB2 whole entry): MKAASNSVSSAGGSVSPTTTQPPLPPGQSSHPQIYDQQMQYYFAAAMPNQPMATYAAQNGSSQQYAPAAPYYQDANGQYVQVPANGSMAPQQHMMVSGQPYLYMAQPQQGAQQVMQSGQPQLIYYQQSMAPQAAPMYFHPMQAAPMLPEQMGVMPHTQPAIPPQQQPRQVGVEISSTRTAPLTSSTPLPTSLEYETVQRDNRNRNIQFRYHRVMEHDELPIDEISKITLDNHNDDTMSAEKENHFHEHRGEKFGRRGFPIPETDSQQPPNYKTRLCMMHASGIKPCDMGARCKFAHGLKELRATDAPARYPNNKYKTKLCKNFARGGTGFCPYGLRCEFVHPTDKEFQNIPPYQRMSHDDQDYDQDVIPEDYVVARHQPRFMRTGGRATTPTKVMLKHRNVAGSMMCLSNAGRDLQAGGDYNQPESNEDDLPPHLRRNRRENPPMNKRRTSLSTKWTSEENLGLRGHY

[5] = tested on: Streptococcus sp. 'group A'; assay: growth inhibition of control SK(-) GAS strain, dose response, counter-screen for streptokinase expression inhibitor project, luminescence, kanamycin, BacTiterGlo, confirmation (AID 1900); assay type: functional, organism-based
Streptokinase A = biological target: T3, Streptokinase A (Streptococcus pyogenes serotype M1, UniProt P10520); assay: S. pyogenes streptokinase expression inhibitors, potency, dose response, plasminogen activation absorbance, OD405 (AID 1914); assay type: functional, Streptococcus pyogenes M1 GAS;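 also: secreted streptokinase activity via plasminogen activation per viability signal from cell pellet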
T3 sequence (P10520 whole entry): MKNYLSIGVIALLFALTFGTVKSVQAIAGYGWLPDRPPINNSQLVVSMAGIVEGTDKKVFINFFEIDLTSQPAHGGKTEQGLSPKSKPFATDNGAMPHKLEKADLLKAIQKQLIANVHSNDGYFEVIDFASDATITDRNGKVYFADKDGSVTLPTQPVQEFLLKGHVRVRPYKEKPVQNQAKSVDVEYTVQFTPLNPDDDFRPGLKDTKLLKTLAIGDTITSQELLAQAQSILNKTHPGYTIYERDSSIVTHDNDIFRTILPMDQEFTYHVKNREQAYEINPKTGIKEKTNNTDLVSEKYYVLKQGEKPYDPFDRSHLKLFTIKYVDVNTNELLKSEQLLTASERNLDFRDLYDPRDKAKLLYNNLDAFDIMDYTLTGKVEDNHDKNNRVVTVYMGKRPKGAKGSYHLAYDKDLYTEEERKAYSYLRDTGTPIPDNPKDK

Streptococcus = assay: Group A Streptococcus viability loss, dose response, counter-screen for streptokinase expression inhibitor project, luminescence, BacTiterGlo (AID 1915); assay type: functional, organism-based;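 also: potency for reduction of bacterial viability or growth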
[6] = HEp-2 cell cytotoxicity, dose response, cytotoxicity control for RSV inhibitor project, HTS (AID 2410); assay type: functional; details: human respiratory syncytial virus
[7] = biological target: T4, Ubiquitin-conjugating enzyme E2 N (Homo sapiens, UniProt P61088); assay type: functional;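 also: Dose-response confirmation in a TR-FRET assay detecting UBC13-driven polyubiquitin chain formation, inhibition measured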
T4 sequence (P61088 whole entry): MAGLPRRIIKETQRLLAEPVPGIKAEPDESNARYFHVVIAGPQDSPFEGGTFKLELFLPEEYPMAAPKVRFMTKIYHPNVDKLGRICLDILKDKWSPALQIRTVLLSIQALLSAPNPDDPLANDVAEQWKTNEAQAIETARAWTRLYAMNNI

[8] = Luminescence Cell-Based Dose Confirmation HTS to Identify Inhibitors of Platelet Dense Granule Release. [Related pubchem assays: 1663 (Primary HTS), 1678 (Summary of Project)]; assay type: functional
[9] = Luminescence Cell-Based Dose Response HTS to Identify Activators of Luciferase Translation or Activity in H4 […] Cells. [Related pubchem assays: 1829 (Project Summary), 1814 (Primary HTS)]; assay type: functional
[10] = Luminescence Cell-Based Dose Confirmation HTS to Identify Activators of 5'UTR Stem-Loop Driven Alpha-Synuclein mRNA Translation in H4 Neuroglioblastoma Cells. [Related pubchem assays: 1829 (Project Summary), 1814 (Primary HTS)]; assay type: functional
H4 = assay: Luminescence Cell-Based Dose Response HTS to Identify Activators of 5'UTR Stem-Loop Driven Prion Protein mRNA Translation in H4 Neuroglioblastoma Cells. [Related pubchem assays: 1829 (Project Summary), 1814 (Primary HTS)]; assay type: functional; details: Homo sapiens
[11] = biological target: Luciferin 4-monooxygenase (Photinus pyralis, UniProt P08659); assay: firefly luciferase enzyme inhibitors, dose response, biochemical, luminescence (AID 1891)
Chain of Luciferin 4-monooxygenase (P08659 whole entry): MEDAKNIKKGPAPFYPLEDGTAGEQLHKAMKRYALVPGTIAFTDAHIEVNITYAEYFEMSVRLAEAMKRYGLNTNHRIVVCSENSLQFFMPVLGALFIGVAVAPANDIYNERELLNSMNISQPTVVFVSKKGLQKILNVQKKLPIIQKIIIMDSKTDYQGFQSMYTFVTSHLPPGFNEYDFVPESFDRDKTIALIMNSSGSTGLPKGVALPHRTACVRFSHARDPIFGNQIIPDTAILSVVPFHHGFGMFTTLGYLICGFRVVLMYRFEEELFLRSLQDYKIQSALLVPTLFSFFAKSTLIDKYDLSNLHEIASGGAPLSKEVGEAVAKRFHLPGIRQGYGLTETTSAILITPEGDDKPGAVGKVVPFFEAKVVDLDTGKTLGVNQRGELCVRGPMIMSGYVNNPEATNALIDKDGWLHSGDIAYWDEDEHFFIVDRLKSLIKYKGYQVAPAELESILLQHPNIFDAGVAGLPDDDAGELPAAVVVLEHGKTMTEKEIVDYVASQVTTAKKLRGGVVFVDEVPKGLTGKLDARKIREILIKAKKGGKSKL

[12] = biological target: T5, Rac GTPase-activating protein 1 (Homo sapiens, UniProt Q9H0H5); assay: MgcRacGAP GTPase-activating activity inhibitors, confirmation, biochemical, ADP Hunter fluorescence, primary and confirmatory (AID 624330); assay type: functional
T5 sequence (Q9H0H5 whole entry): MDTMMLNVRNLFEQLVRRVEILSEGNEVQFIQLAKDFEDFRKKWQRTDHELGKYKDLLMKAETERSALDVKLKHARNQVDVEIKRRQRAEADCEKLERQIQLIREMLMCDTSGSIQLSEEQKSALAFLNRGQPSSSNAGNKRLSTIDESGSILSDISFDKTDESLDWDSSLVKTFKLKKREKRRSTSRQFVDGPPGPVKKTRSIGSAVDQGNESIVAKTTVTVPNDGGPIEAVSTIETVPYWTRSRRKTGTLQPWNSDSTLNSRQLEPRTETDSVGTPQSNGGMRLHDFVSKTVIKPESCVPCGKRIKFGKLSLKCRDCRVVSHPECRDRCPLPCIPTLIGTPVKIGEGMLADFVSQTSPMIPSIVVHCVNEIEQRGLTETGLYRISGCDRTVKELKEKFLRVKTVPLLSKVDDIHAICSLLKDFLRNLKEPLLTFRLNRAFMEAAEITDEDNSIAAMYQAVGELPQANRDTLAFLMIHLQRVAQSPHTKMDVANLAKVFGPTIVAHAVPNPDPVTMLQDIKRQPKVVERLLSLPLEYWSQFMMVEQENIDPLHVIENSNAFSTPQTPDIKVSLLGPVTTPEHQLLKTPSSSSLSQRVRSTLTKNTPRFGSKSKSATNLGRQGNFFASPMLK

[13] = biological target: T6, Corticotropin-releasing factor receptor 2/Corticotropin-releasing factor-binding protein (Homo sapiens, UniProt P24387+Q13324); assay: activators of CRF receptor 2 with binding protein – uHTS hits, confirmation (AID 602473); assay type: functional; details: read-out: EC50_Mean
T6 sequence (Q13324 whole entry): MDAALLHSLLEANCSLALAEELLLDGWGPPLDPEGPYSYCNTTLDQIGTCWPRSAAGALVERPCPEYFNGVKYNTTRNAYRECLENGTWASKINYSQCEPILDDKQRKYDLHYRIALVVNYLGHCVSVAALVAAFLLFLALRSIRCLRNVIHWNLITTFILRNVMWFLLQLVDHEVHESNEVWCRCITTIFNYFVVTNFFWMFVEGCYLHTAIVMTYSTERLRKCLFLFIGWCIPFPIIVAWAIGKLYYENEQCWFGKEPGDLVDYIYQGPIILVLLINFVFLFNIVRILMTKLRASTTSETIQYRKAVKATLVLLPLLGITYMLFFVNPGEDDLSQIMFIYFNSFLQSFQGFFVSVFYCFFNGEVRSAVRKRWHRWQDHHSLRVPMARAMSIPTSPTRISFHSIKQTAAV
T6 sequence (P24387 whole entry): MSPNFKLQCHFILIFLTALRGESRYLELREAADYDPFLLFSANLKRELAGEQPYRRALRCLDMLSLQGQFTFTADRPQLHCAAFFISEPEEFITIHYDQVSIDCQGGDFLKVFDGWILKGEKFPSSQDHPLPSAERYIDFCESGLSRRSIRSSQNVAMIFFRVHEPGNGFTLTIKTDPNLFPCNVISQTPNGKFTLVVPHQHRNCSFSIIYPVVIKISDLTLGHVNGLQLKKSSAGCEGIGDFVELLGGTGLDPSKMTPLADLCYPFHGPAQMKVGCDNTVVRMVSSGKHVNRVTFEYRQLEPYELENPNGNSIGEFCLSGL

[14] = control 3'UTR Renilla luciferase suppression, dose response, counter-screen for Shn3 inhibitor project, cell-based, Clone20-Shn3RL, cherry-picked (AID 624133); assay type: functional
[15] = Shn3 3'UTR reporter inhibitors, dose response, cell-based, Clone20 osteoblasts, firefly luciferase, cherry-picked (AID 624132); assay type: functional;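 also: firefly luciferase luminescence from reporter carrying the Shn3 3'UTR in osteoblasts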
[16] = HepG2 cell cytotoxicity, dose response, cytotoxicity control for Shn3 inhibitor project, CellTiter-Glo, cherry-picked (AID 624134); assay type: functional, cell-based

In the case of C/C(=N\NC(=O)c1c(Br)c(C)nn1C)c1ccc(NC(=O)C(C)Oc2ccc(Cl)cc2C)cc1 (centres undefined), the EC50 [1] was 11 µM (active) and the EC50 [2] was 15.1 µM (active).
For Cc1cc(NC(=O)COC(=O)COc2ccc(C(=O)c3ccccc3)cc2)no1, the IC50 (cells) was 21.2 µM (active).
In the case of CO[C@H]1O[C@H](CBr)[C@@H](OC(=O)c2ccccc2)[C@H](O)[C@H]1O, the EC50 [3] was > 300 µM (not active) and the EC50 [4] was > 300 µM (not active).
With O=C(NC1CCCCC1)C(c1ccccc1F)N(Cc1ccco1)C(=O)Cn1nnc2ccccc21 (centres undefined) the EC50 [1] was 16 µM (active) and the EC50 [2] was 16 µM (active).
For CC(=O)Nc1nc2ccccc2n1CCOc1ccccc1, the EC50 [1] was 15.4 µM (active), the EC50 [5] was 11.3 µM (active) and the EC50 [2] was 12.7 µM (active). The EC50 (Streptokinase A) was > 150 µM (not active) and the EC50 (Streptococcus) was > 150 µM (not active).
With Cc1c(C(=O)Nc2ccc(S(=O)(=O)N(C)C3CCN(C)CC3)cc2)oc2ccccc12 the CC50 [6] was 17.2 µM (active) and the IC50 [7] was > 20 µM (inactive).
For Cc1ccc(NC(=O)c2ccc(NCCN)c([N+](=O)[O-])c2)cc1Cl, the CC50 [6] was 24.4 µM (active) and the IC50 [7] was > 20 µM (inactive).
In the case of O=C1C2=C(SCCS2)C(=O)N1c1ccccc1, the EC50 [3] was > 300 µM (not active) and the EC50 [4] was > 300 µM (not active).
With CC(C)=C(NC(=O)c1ccccc1)C(=O)N/N=C/c1ccc(O)cc1 the EC50 [8] was > 112 µM (not active), the EC50 [9] was 11.8 µM (active) and the EC50 [10] was 11.3 µM (active). The EC50 (H4) was 8.89 µM (active), the EC50 [11] was > 112 µM (not active) and the IC50 [12] was 102 µM (active).
In the case of COc1ccc(C[C@H]2CN3C(=NC[C@@H]3Cc3ccccc3)N2CCNC(=O)c2ccc(C)c(Br)c2)cc1, the IC50 [7] was > 20 µM (inactive).
For CN(C)CCCN(C(=O)c1ccc(S(=O)(=O)N2CCCC2)cc1)c1nc2ccc(Br)cc2s1, the IC50 [7] was > 20 µM (inactive).
With CC(=O)c1ccc(OCC(=O)Nc2ccc3c(c2)CCC3)cc1 the IC50 (cells) was > 50 µM (active).
For CN(C)c1ccc(C=C2SC(=S)N(Cc3ccco3)C2=O)cc1, the EC50 [13] was 3.2 µM (active).
With COc1ccc(/C=N/NC(=O)CSCc2ccc([N+](=O)[O-])cc2)cc1OC the IC50 [7] was > 20 µM (inactive).
For Cc1cc(N/N=C/c2cccc(Cl)c2)nc(NCc2ccccc2)n1, the EC50 [1] was 35.3 µM (active) and the EC50 [2] was 39.6 µM (active).
For C=CCC1(CC=C)CCCN1C(=O)C1CCC(=O)N(CCc2ccc(OC)cc2)C1 (centres undefined), the EC50 [9] was 10.4 µM (active), the EC50 [10] was 6.13 µM (active) and the EC50 (H4) was 96 µM (active).
For Cc1c([N+](=O)[O-])c(C(=O)Nc2ccc3c(c2)OCCO3)nn1C, the EC50 [9] was 11 µM (active), the EC50 [10] was 17.1 µM (active) and the EC50 (H4) was 9.3 µM (active).
In the case of CC1=CC(C)(C)N2C(=O)C3(C(C#N)=C(N)OC4=C3C(=O)CC(C)(C)C4)c3cc(C)cc1c32 (centres undefined), the EC50 [3] was > 300 µM (not active) and the EC50 [4] was > 300 µM (not active).
With Cc1[n-][o+]nc1OCCNCCNc1ccc([N+](=O)[O-])c2cccnc12 the EC50 [3] was 120 µM (active) and the EC50 [4] was 18.6 µM (active).
With Cc1cccc(OCC(=O)NC(C)C(=O)N/N=C/c2c(OCc3ccccc3)ccc3ccccc23)c1 (centres undefined) the EC50 [9] was 39.7 µM (active), the EC50 [10] was 9.47 µM (active) and the EC50 (H4) was 33.5 µM (active).
With COCCCNC(=O)CCC(=O)NNc1nc2ccccc2c2nc(C)nn12 the EC50 [3] was > 300 µM (not active) and the EC50 [4] was 1.13 µM (active).
With CC(C)c1ccc(N(C(=O)c2ccco2)C(C(=O)NC2CCCC2)c2ccncc2)cc1 (centres undefined) the EC50 [9] was 50.3 µM (active), the EC50 [10] was 22.1 µM (active) and the EC50 (H4) was > 120 µM (not active).
For c1csc(CCNc2ncnc3sc4c(c23)CCC4)c1, the AC50 [14] was 0.988 µM (active), the AC50 [15] was 1.7 µM (active) and the EC50 [1] was 63.9 µM (active). For the same molecule, the AC50 [16] was 7.76 µM (active) and the EC50 [2] was 72.7 µM (active).
